Inhibition data for 16 molecules are collected here from ChEMBL document CHEMBL2007661, “Compounds: GSK PKIS; Assays: UNC Frye lab” (2012).

Assay [1] has as its target T1, Inhibitor of nuclear factor kappa-B kinase subunit beta (Homo sapiens) (UniProt O14920).
T1 sequence (whole entry): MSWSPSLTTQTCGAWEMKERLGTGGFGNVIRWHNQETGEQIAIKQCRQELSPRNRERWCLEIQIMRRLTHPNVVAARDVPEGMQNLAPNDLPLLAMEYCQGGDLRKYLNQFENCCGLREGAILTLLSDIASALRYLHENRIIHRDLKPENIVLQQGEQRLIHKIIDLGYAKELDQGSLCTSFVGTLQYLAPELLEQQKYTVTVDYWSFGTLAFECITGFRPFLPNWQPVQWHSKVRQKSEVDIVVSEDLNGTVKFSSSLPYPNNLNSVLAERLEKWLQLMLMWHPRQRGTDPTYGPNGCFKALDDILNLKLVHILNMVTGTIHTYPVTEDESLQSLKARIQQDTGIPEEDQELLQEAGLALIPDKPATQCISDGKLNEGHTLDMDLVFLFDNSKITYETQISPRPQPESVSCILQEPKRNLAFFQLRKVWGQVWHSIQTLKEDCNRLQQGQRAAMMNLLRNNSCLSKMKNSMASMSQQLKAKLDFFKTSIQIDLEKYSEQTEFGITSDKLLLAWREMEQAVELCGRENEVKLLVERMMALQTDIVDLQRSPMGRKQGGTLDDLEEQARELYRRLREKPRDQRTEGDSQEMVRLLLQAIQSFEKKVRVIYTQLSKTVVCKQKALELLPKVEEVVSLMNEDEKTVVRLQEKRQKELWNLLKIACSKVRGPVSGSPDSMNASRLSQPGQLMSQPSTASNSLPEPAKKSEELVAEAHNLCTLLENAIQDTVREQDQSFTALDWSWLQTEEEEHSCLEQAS
Conditions: at 1 µM.

The target of assay [2] is T2, Tyrosine-protein kinase Mer (Homo sapiens) (UniProt Q12866).
T2 sequence (whole entry): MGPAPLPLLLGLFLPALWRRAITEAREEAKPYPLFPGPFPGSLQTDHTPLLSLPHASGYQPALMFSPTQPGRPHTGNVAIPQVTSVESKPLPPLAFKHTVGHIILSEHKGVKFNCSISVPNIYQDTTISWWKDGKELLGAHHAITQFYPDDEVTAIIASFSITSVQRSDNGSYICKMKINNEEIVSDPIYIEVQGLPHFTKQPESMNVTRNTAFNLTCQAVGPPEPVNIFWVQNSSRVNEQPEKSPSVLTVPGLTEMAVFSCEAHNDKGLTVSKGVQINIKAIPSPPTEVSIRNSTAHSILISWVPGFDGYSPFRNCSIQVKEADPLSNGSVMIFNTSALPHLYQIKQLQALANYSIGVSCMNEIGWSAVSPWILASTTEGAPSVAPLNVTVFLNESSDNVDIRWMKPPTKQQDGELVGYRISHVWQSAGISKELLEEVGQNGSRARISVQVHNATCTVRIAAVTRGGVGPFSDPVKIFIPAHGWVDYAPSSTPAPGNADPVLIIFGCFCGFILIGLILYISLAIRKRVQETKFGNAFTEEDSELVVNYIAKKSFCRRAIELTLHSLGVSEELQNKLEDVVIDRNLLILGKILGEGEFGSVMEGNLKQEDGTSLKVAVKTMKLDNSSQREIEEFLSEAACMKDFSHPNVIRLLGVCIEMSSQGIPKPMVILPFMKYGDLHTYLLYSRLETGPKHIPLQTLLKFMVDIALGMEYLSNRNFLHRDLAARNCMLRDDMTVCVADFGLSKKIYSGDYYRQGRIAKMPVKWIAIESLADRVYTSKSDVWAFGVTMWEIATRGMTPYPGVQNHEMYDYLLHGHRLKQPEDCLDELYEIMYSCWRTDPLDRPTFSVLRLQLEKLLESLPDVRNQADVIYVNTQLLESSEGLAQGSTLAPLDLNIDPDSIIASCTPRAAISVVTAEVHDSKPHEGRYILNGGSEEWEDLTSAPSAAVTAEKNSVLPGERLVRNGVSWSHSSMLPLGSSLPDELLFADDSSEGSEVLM
To be noted: at 10 µM.

In assay [3] the target is T3, Inhibitor of nuclear factor kappa-B kinase subunit epsilon (Homo sapiens) (UniProt Q14164).
T3 sequence (whole entry): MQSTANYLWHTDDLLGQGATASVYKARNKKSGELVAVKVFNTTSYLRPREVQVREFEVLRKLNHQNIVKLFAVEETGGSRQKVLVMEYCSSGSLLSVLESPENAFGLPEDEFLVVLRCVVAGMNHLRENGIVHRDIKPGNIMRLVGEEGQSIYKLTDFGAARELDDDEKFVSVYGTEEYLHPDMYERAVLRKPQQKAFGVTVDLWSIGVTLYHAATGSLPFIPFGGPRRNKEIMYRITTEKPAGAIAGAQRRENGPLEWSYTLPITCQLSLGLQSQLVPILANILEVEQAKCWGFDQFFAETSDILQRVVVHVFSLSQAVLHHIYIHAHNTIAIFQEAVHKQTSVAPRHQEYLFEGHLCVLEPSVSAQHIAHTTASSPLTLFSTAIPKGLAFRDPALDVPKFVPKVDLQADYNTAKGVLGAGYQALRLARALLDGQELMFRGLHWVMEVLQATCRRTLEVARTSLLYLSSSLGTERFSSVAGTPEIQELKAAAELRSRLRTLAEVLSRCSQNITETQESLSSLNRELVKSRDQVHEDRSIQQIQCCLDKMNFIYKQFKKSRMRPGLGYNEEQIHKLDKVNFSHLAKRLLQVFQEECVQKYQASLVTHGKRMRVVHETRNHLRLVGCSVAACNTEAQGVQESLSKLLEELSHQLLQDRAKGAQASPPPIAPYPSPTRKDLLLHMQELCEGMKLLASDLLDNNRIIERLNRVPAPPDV
Conditions: at 1 µM.

Values joined by “and” are separate entries in the source; they are usually repeats but may differ in a detail not shown here. Equal entries are not always repeated.

In the case of `N#Cc1c(NC(=O)c2ccc(F)cc2)sc2c1CCCC2`, the inhibition in assay [1] was -2%; in assay [2], 1%; in assay [3] it was -4% and -3%.

Take `FC(F)(F)c1cccc(Nc2nccc(-c3cnn4nc(-c5ccccc5)ccc34)n2)c1`: the inhibition in assay [1] is 1% and 2%; in assay [2] it was -2%; in assay [3], 7% and 5%.

With `COc1cc(Nc2nccc(-c3cnn4ncccc34)n2)cc(OC)c1`, the inhibition in assay [1] was -9%; in assay [2], 5%; in assay [3] it was 38%.

With `O=C(O[C@H]1CN[C@H](C#Cc2cc3ncnc(Nc4ccc(Cc5ccccc5)cc4)c3s2)C1)N1CCOCC1`, the inhibition in assay [1] was 2% and 3%; in assay [2], 5%; in assay [3] it was 4% and 2%.

As for `NC(=O)c1sc(-n2cnc3ccccc32)cc1OCc1ccccc1Br`, the inhibition in assay [1] is 1% and 0%; in assay [2], 45%; in assay [3], 2% and -1%.

Take `COc1cc2ncn(-c3cc(O[C@@H](C)c4ccccc4Cl)c(C(N)=O)s3)c2cc1OC`: the inhibition is 1% in assay [1]; 69% in assay [2]; 6% and 8% in assay [3].

Take `COc1ccc(-c2nn3ncccc3c2-c2ccnc(Nc3ccc(F)c(F)c3)n2)cc1`: the inhibition in assay [1] is -7% and -1%; in assay [2], -4%; in assay [3], -4% and -3%.

Regarding `Nc1nc(-c2cccc(Cl)c2)c(-c2ccc3ncccc3n2)s1`, the inhibition was -3% and -1% in assay [1]; 1% in assay [2]; 1% in assay [3].

Consider `COC(=O)Nc1nc2cc(Oc3ccc(NC(=O)Nc4cccc(Br)c4)cc3)ccc2[nH]1`, for which the inhibition in assay [1] was -3% and -1%; in assay [2], 4%; in assay [3] it was -3% and 0%.

Take `C#Cc1cccc(Nc2ncnc3ccc(OCCCCNCCS(C)(=O)=O)cc23)c1`: the inhibition in assay [1] was -5% and -6%; in assay [2], 6%; in assay [3] it was -2% and 0%.

Turning to `COc1cc2c(cc1Nc1nc(Nc3ccsc3C(N)=O)c3cc[nH]c3n1)N(C(=O)CN(C)C)CCC2(C)C`, the inhibition is -5% and -1% in assay [1]; 68% in assay [2]; 39% and 44% in assay [3].

Consider `Cc1ccc2c(c1)/C(=N/Nc1ccc(S(N)(=O)=O)cc1)C(=O)N2`, for which the inhibition in assay [1] is 4% and 10%; in assay [2], 66%; in assay [3], -1% and 1%.

In the case of `Nc1nccc(-c2c(-c3ccc(F)cc3)ncn2C2CCC(O)CC2)n1` (stereo not drawn), the inhibition in assay [1] was -2% and -3%; in assay [2], 29%; in assay [3] it was 0% and 1%.

Take `N#Cc1cccc(Nc2ncc(-c3ccccc3)o2)c1`: the inhibition in assay [1] is -2% and -3%; in assay [2] it was 80%; in assay [3], 1% and -3%.

With `c1cnn2ncc(-c3ccnc(NCCCN4CCOCC4)n3)c2c1`, the inhibition in assay [1] is -2%; in assay [2], 81%; in assay [3] it was 1% and 2%.

`O=S(=O)(CCOCc1ccc(-c2ccc3ncnc(Nc4ccc(OCc5cccc(F)c5)c(Cl)c4)c3c2)o1)c1ccccc1`: the inhibition in assay [1] is -2% and -4%; in assay [2], 5%; in assay [3] it was -2% and -1%.

One may read the inhibition as the change of the read-out against control, counted positive when it falls.
